Experimental data taken from ChEMBL document CHEMBL1208701, “Structure-activity relationship of indoline-2-carboxylic acid N-(substituted)phenylamide derivatives” (Bioorg Med Chem Lett, 2010).

Columns and labels:
[1] = system: RAW264.7; assay: Inhibition of LPS-induced NF-kappaB transcriptional activity in mouse RAW264.7 cells at 100 uM; assay type: cell-based
[2] = Inhibition of LPS-induced NF-kappaB transcriptional activity in mouse RAW264.7 cells; assay type: cell-based
[3] = system: PC-3; assay: Cytotoxicity against human PC3 cells; assay type: functional
[4] = system: ACHN; assay: Cytotoxicity against human ACHN cells; assay type: functional
[5] = system: HCT-15; assay: Cytotoxicity against human HCT15 cells; assay type: functional
[6] = system: MDA-MB-231; assay: Cytotoxicity against human MDA-MB-231 cells; assay type: functional
[7] = system: NCI-H23; assay: Cytotoxicity against human NCI-H23 cells; assay type: functional
[8] = system: NUGC-3; assay: Cytotoxicity against human NUGC3 cells; assay type: functional

Row | SMILES | inhibition [1] [%] | IC50 [2] [µM] | GI50 [3] [µM] | GI50 [4] [µM] | GI50 [5] [µM] | GI50 [6] [µM] | GI50 [7] [µM] | GI50 [8] [µM]
1 | COc1cc(NC(=O)C2Cc3ccccc3N2)cc(OC)c1 (stereo not given) | 41 | > 100 | – | – | – | – | – | –
2 | CC(C)(C)OC(=O)N1c2ccccc2CC1C(=O)Nc1ccccc1[N+](=O)[O-] (stereo not given) | 63 | – | – | – | – | – | – | –
3 | COc1ccc(NC(=O)C2Cc3ccccc3N2C(=O)OC(C)(C)C)cc1 (stereo not given) | 29 | > 100 | – | – | – | – | – | –
4 | CC(=O)N1c2ccccc2CC1C(=O)Nc1cc(Cl)cc(Cl)c1 (stereo not given) | – | 34.1 | 6.37 | > 10 | 8.68 | > 10 | 7.68 | 7.86
5 | O=C(Nc1ccc(C(F)(F)F)cc1)C1Cc2ccccc2N1C(=O)c1ccccc1 (stereo not given) | – | 13.5 | – | – | 5.49 | – | 4.58 | 8.72
6 | Cc1cc(C)cc(NC(=O)C2Cc3ccccc3N2C(=O)OC(C)(C)C)c1 (stereo not given) | 78 | 16.6 | – | – | – | – | – | –
7 | Cc1ccc(C)c(NC(=O)C2Cc3ccccc3N2)c1 (stereo not given) | 47 | > 100 | – | – | – | – | – | –
8 | Cc1ccccc1NC(=O)C1Cc2ccccc2N1 (stereo not given) | 39 | > 100 | – | – | – | – | – | –
9 | O=C(Nc1cccc(Cl)c1)C1Cc2ccccc2N1 (stereo not given) | 63 | – | – | – | – | – | – | –
10 | CC(C)(C)OC(=O)N1c2ccccc2CC1C(=O)Nc1ccccc1C(F)(F)F (stereo not given) | 38 | > 100 | – | – | – | – | – | –
11 | COc1ccc(NC(=O)C2Cc3ccccc3N2)cc1OC (stereo not given) | 15 | > 100 | – | – | – | – | – | –
12 | O=C(Nc1ccc(Cl)c(Cl)c1)C1Cc2ccccc2N1 (stereo not given) | 72 | – | – | – | – | – | 11.6 | –
13 | COc1cccc2c1C(=O)c1c(O)c3c(c(O)c1C2=O)C[C@@](O)(C(=O)CO)C[C@@H]3O[C@H]1C[C@H](N)[C@H](O)[C@H](C)O1 [DOXORUBICIN] | – | – | 0.317 | 0.182 | 2.18 | 0.194 | 0.178 | 0.202
14 | Cc1cccc(NC(=O)C2Cc3ccccc3N2)c1 (stereo not given) | 29 | > 100 | – | – | – | – | – | –
15 | O=C(Nc1ccccc1[N+](=O)[O-])C1Cc2ccccc2N1 (stereo not given) | 41 | > 100 | – | – | – | – | – | –
16 | CC(C)(C)C(=O)N1c2ccccc2CC1C(=O)Nc1ccc(C(F)(F)F)cc1 (stereo not given) | – | 12.7 | 3.89 | 5.63 | 5.54 | 7.31 | 3.65 | 6.58
17 | O=C(Nc1ccc(C(F)(F)F)cc1)C1Cc2ccccc2N1 (stereo not given) | 56 | 79.2 | – | – | – | – | – | –
18 | Cc1ccc(S(=O)(=O)N2c3ccccc3CC2C(=O)Nc2cc(Cl)cc(Cl)c2)cc1 (stereo not given) | – | > 100 | > 10 | > 10 | > 10 | > 10 | 7.53 | > 10
19 | Cc1ccc(NC(=O)C2Cc3ccccc3N2C(=O)OC(C)(C)C)cc1C (stereo not given) | 64 | – | – | – | – | – | – | –
20 | O=C(Nc1cc(C(F)(F)F)cc(C(F)(F)F)c1)C1Cc2ccccc2N1 (stereo not given) | 96 | 12 | 0.794 | – | – | – | 0.648 | –
21 | Cc1ccccc1NC(=O)C1Cc2ccccc2N1C(=O)OC(C)(C)C (stereo not given) | 68 | 62.5 | – | – | – | – | – | –
22 | O=C(Nc1ccccc1)C1Cc2ccccc2N1 (stereo not given) | 65 | 71.6 | – | – | – | – | – | –
23 | O=C(Nc1ccc(O)cc1)C1Cc2ccccc2N1 (stereo not given) | 63 | 66.2 | – | – | – | – | – | –
24 | O=C(Nc1ccc([N+](=O)[O-])cc1)C1Cc2ccccc2N1 (stereo not given) | 41 | > 100 | – | – | – | – | – | –

Row | SMILES | inhibition [1] [%] | IC50 [2] [µM] | GI50 [3] [µM] | GI50 [4] [µM] | GI50 [5] [µM] | GI50 [6] [µM] | GI50 [7] [µM] | GI50 [8] [µM]
25 | CC(C)(C)OC(=O)N1c2ccccc2CC1C(=O)Nc1ccccc1Cl (stereo not given) | 50 | – | – | – | – | – | – | –
26 | CC(C)(C)OC(=O)N1c2ccccc2CC1C(=O)Nc1ccccc1 (stereo not given) | 30 | > 100 | – | – | – | – | – | –
27 | CC(C)(C)OC(=O)N1c2ccccc2CC1C(=O)Nc1cc(C(F)(F)F)cc(C(F)(F)F)c1 (stereo not given) | – | 14.9 | 0.838 | – | – | – | 1.52 | –
28 | COc1ccccc1NC(=O)C1Cc2ccccc2N1 (stereo not given) | 60 | 79.2 | – | – | – | – | – | –
29 | CC(C)(C)OC(=O)N1c2ccccc2CC1C(=O)Nc1ccccc1O (stereo not given) | 93 | – | – | – | – | – | – | –
30 | CC(C)(C)OC(=O)N1c2ccccc2CC1C(=O)Nc1cccc(Cl)c1 (stereo not given) | > 100 | – | – | – | – | – | 3.23 | –
31 | COc1cccc(NC(=O)C2Cc3ccccc3N2C(=O)OC(C)(C)C)c1 (stereo not given) | 38 | > 100 | – | – | – | – | – | –
32 | COc1cc2c(cc1O)CCC(C(=O)Nc1ccccc1)O2 (stereo not given) | 90 | 40.1 | – | – | – | – | 9.32 | –
33 | CC(C)(C)OC(=O)N1c2ccccc2CC1C(=O)Nc1ccc(Cl)cc1 (stereo not given) | 31 | > 100 | – | – | – | – | – | –
34 | CCCCCCCCC(=O)N1c2ccccc2CC1C(=O)Nc1ccc(C(F)(F)F)cc1 (stereo not given) | – | > 100 | 1.86 | 3.78 | 2.07 | > 10 | 1.62 | 3.45
35 | CC(C)(C)OC(=O)N1c2ccccc2CC1C(=O)Nc1ccc(O)cc1 (stereo not given) | 42 | > 100 | – | – | – | – | – | –
36 | Cc1ccc(NC(=O)C2Cc3ccccc3N2)cc1C (stereo not given) | 87 | 43.3 | – | – | – | – | – | –
37 | Cc1cccc(NC(=O)C2Cc3ccccc3N2C(=O)OC(C)(C)C)c1 (stereo not given) | 87 | – | – | – | – | – | – | –
38 | O=C(Nc1ccccc1O)C1Cc2ccccc2N1 (stereo not given) | 37 | > 100 | – | – | – | – | – | –
39 | COc1ccc(NC(=O)C2Cc3ccccc3N2C(=O)OC(C)(C)C)cc1OC (stereo not given) | 65 | 52.2 | – | – | – | – | – | –
40 | CC(C)(C)OC(=O)N1c2ccccc2CC1C(=O)Nc1cccc(C(F)(F)F)c1 (stereo not given) | > 100 | – | 3.34 | – | – | – | 6.34 | –
41 | COc1cc(NC(=O)C2Cc3ccccc3N2C(=O)OC(C)(C)C)cc(OC)c1 (stereo not given) | 88 | – | – | – | – | – | – | –
42 | Cc1ccc(NC(=O)C2Cc3ccccc3N2C(=O)OC(C)(C)C)cc1 (stereo not given) | 37 | > 100 | – | – | – | – | – | –
43 | O=C(Nc1cccc([N+](=O)[O-])c1)C1Cc2ccccc2N1 (stereo not given) | 49 | > 100 | – | – | – | – | – | –
44 | O=C(Nc1ccccc1C(F)(F)F)C1Cc2ccccc2N1 (stereo not given) | 61 | 79.4 | – | – | – | – | – | –
45 | O=C(Nc1cccc(O)c1)C1Cc2ccccc2N1 (stereo not given) | 30 | > 100 | – | – | – | – | – | –
46 | CC(C)(C)OC(=O)N1c2ccccc2CC1C(=O)Nc1ccc(C(F)(F)F)cc1 (stereo not given) | > 100 | 12 | 2.02 | – | – | – | 3.21 | –
47 | CC(C)(C)OC(=O)N1c2ccccc2CC1C(=O)Nc1cc(Cl)ccc1Cl (stereo not given) | 71 | 45.9 | – | – | – | – | – | –
48 | CC(NC(=O)OC(C)(C)C)C(=O)N1c2ccccc2CC1C(=O)Nc1cc(Cl)cc(Cl)c1 (stereo not given) | – | 5.9 | 4.43 | 5.04 | 4.33 | – | 6.71 | 6.21

Row | SMILES | inhibition [1] [%] | IC50 [2] [µM] | GI50 [3] [µM] | GI50 [4] [µM] | GI50 [5] [µM] | GI50 [6] [µM] | GI50 [7] [µM] | GI50 [8] [µM]
49 | CC(C)(C)OC(=O)N1c2ccccc2CC1C(=O)Nc1cc(Cl)cc(Cl)c1 (stereo not given) | – | 10.1 | 1.68 | – | – | – | 3.39 | –
50 | O=C(Nc1cc(Cl)cc(Cl)c1)C1Cc2ccccc2N1C(=O)c1ccccc1 (stereo not given) | – | 46.5 | 6.84 | 8.26 | – | 6.42 | 4.28 | 7.97
51 | COc1ccccc1NC(=O)C1Cc2ccccc2N1C(=O)OC(C)(C)C (stereo not given) | 76 | – | – | – | – | – | – | –
52 | CC(C)(C)C(=O)N1c2ccccc2CC1C(=O)Nc1cc(Cl)cc(Cl)c1 (stereo not given) | – | 14.5 | 4.18 | 3.68 | 3.81 | 4.97 | 3.46 | 3.35
53 | CC(C)(C)OC(=O)N1c2ccccc2CC1C(=O)Nc1ccc(Cl)c(Cl)c1 (stereo not given) | 97 | 12.6 | 4.66 | – | – | – | 3.19 | –
54 | O=C(Nc1cc(Cl)cc(Cl)c1)C1Cc2ccccc2N1 (stereo not given) | 98 | – | 2.53 | – | – | – | 12.3 | –
55 | O=C(Nc1ccccc1Cl)C1Cc2ccccc2N1 (stereo not given) | 62 | 69.7 | – | – | – | – | – | –
56 | O=C(Nc1cccc(C(F)(F)F)c1)C1Cc2ccccc2N1 (stereo not given) | 99 | 46 | 4.24 | – | – | – | 4.96 | –
57 | Cc1ccc(NC(=O)C2Cc3ccccc3N2)cc1 (stereo not given) | 41 | > 100 | – | – | – | – | – | –
58 | Cc1ccc(S(=O)(=O)N2c3ccccc3CC2C(=O)Nc2ccc(C(F)(F)F)cc2)cc1 (stereo not given) | – | > 100 | 6.68 | > 10 | > 10 | > 10 | 8.97 | > 10
59 | COc1ccc(OC)c(NC(=O)C2Cc3ccccc3N2C(=O)OC(C)(C)C)c1 (stereo not given) | 76 | – | – | – | – | – | – | –
60 | COc1cccc(NC(=O)C2Cc3ccccc3N2)c1 (stereo not given) | 64 | – | – | – | – | – | – | –
61 | CCCCCCCCC(=O)N1c2ccccc2CC1C(=O)Nc1cc(Cl)cc(Cl)c1 (stereo not given) | – | 12.6 | 1.61 | 1.89 | 1.73 | 3.57 | 1.28 | 1.52
62 | O=C(Nc1cc(Cl)ccc1Cl)C1Cc2ccccc2N1 (stereo not given) | 34 | > 100 | – | – | – | – | – | –
63 | COc1ccc(OC)c(NC(=O)C2Cc3ccccc3N2)c1 (stereo not given) | 47 | > 100 | – | – | – | – | – | –
64 | Cc1ccc(C)c(NC(=O)C2Cc3ccccc3N2C(=O)OC(C)(C)C)c1 (stereo not given) | 75 | 50 | – | – | – | – | – | –
65 | Cc1cc(C)cc(NC(=O)C2Cc3ccccc3N2)c1 (stereo not given) | 56 | 85 | – | – | – | – | – | –
66 | CC(C)(C)OC(=O)N1c2ccccc2CC1C(=O)Nc1ccc([N+](=O)[O-])cc1 (stereo not given) | > 100 | – | 2.79 | – | – | – | 2.52 | –
67 | CC(C)(C)OC(=O)N1c2ccccc2CC1C(=O)Nc1cccc([N+](=O)[O-])c1 (stereo not given) | 94 | 14.1 | – | – | – | – | – | –
68 | CC(=O)N1c2ccccc2CC1C(=O)Nc1ccc(C(F)(F)F)cc1 (stereo not given) | – | > 100 | > 10 | > 10 | > 10 | > 10 | > 10 | > 10
69 | O=C(Nc1ccc(Cl)cc1)C1Cc2ccccc2N1 (stereo not given) | 62 | 70.7 | – | – | – | – | – | –
70 | CC(C)(C)OC(=O)N1c2ccccc2CC1C(=O)Nc1cccc(O)c1 (stereo not given) | 75 | 58.7 | – | – | – | – | – | –
71 | COc1ccc(NC(=O)C2Cc3ccccc3N2)cc1 (stereo not given) | 37 | > 100 | – | – | – | – | – | –
